Results published in PMC12657321, “Pre-clinical evaluation of a potent and effective Pin1-degrading agent in pancreatic cancer” (Molecular Therapy Oncology, 2025).
Non-standard residues stand in square brackets, D forms with d. Residues, ends and D or L forms follow the SMILES beside them. *: point of attachment. Trp(6-Cl) = N[C@@H](Cc1c[nH]c2cc(Cl)ccc12)C(=O)O; Pip = O=C(O)[C@@H]1CCCCN1; ClAc = O=C(CCl)*

Tests used:
Assay type in all cases: in vivo, mouse
[1] = 164B8 concentration in tissues of treated mice by LC-MS; conditions: for 164B8 conc. (ng/mg) Predicted means (LS means) Adjacent Peritoneum / 164B8 conc. (ng/mg) Predicted means (LS means) Liver / 164B8 conc. (ng/mg) Predicted means (LS means) Tumor: 6 h after last dose, LC-MS, two-way ANOVA LS mean (Figure 7B)
Method: To further verify that the observed activity was due to direct inhibition of Pin1 in vivo, we analyzed tumor tissues to measure 164B8 levels and Pin1 degradation in both tumor and normal tissues. At day 14, 6 h after the final intraperitoneal dose, 164B8 was detected and quantified in tumor tissue via liquid chromatography-mass spectrometry (LC-MS). Significant levels of 164B8 were detected in the liver, tumor-adjacent peritoneum, and tumor tissues collected from mice treated with either 30 mg/kg or 60 mg/kg (Figure 7A). The average tumor values were 0.62 ng/mg for mice treated with 30 mg/kg 164B8 and approximately 8 ng/mg for those treated with 60 mg/kg 164B8, compared with the vehicle control (0.03 ng/mg). In mice treated with 164B8 at 60 mg/kg, we observed enrichment of 164B8 in tumor tissues compared with adjacent normal tissues (mean: 3.65 vs. 8 ng/mg, p = 0.035) and normal liver tissues (mean: 0.75 vs. 8 ng/mg, p = 0.0003). For the 30 mg/kg dose, drug levels were numerically higher in tumor tissue (0.62 ng/mg) compared with adjacent normal peritoneum (0.11 ng/mg) and liver (0.10 ng/mg), although these differences were not statistically significant after adjustment for multiple comparisons (Figures 7A and 7B). Likewise, Pin1 levels in tumor tissues were detected via western blotting (Figure 7C).
Figure 7 Determination of Pin1 levels and 164B8 concentration in treated mice Pin1 drug concentration and Pin1 levels in tumors were measured 6 h after the last dose of 164B8 treatment by LC-MS (A and B) and western blot (C), respectively. Drug concentrations among the three groups were compared using two-way ANOVA in Prism, accounting for interactions (D). Tukey’s multiple comparison test was used to compare multiple groups (∗∗∗p = 0.0003, ∗p = 0.035). Pin1 levels were compared among the three groups after normalizing to β-actin (loading control) using one-way ANOVA and adjusting for multiple comparisons (∗∗∗p < 0.001). TEXT PRINTED IN THE PICTURE: (B) 164B8: 164B8 conc. (ng/mg) Predicted means (LS means) Liver: 0.1017 (30mg/kg); 164B8 conc. (ng/mg) Predicted means (LS means) Adjacent Peritoneum: 0.1133 (30mg/kg); 164B8 conc. (ng/mg) Predicted means (LS means) Tumor: 0.6183 (30mg/kg); 164B8 conc. (ng/mg) Predicted means (LS means) Column means: 0.2778 (30mg/kg); 164B8 conc. (ng/mg) Predicted means (LS means) Liver: 0.7550 (60mg/kg); 164B8 conc. (ng/mg) Predicted means (LS means) Adjacent Peritoneum: 3.648 (60mg/kg); 164B8 conc. (ng/mg) Predicted means (LS means) Tumor: 8.005 (60mg/kg); 164B8 conc. (ng/mg) Predicted means (LS means) Column means: 4.136 (60mg/kg)
(§1) Bioluminescent imaging (BLI) was performed one week post-inoculation. Based on imaging intensity, mice were re-grouped to ensure six animals per group. The PIN1 inhibitor was administered via intraperitoneal injection at doses of 30 mg/kg or 60 mg/kg, once daily, 5 days per week for 2 weeks. Tumor engraftment and growth were monitored by in vivo BLI. D-luciferin potassium salt was dissolved in sterile PBS to a final concentration of 16.6 mg/mL and mice were injected intraperitoneally with D-luciferin solution (0.139 g luciferin/kg body weight), then imaged 10–15 min after luciferin injection using an IVIS Spectrum Imaging System (Lago X) with identical exposure times and binning settings for all mice. Bioluminescence signal intensity was quantified as total flux (photons/s) within a region of interest (ROI) using Aura image software. BLI was performed once every week during the treatment. After 2 weeks of treatment, mice were euthanized 6 h after the final dose. Blood samples were collected via cardiac puncture, and normal peritoneum, intestine, and liver tissues were harvested and snap-frozen on dry ice.

CD-1 mice = tested on: CD-1 mice
Method: The effect of Pin1 degradation by 164B8 on cell viability was assessed using live-cell analysis (IncuCyte S3). […] Furthermore, to evaluate the acute single-dose toxicity of 164B8 in vivo, CD-1 immune-competent mice were exposed to increasing doses of 164B8. […] Therefore, a maximum tolerated dose was not reached (Figure S12).
Figure S12: A) Acute toxicity study at 100mg/kg. In this preliminary safety study, 3 CD -1 mice were treated with a single dose of 100 mg/kg of 164B8. The injections were administered intraperitoneally (ip), and the body weight of the mice was measured for several days after the injection. B) Body weight control during the in -vivo efficacy study. The body weights of the mice in the three groups were measured on the day of treatment (day 0) and 7 and 14 days after.
(1 picture or pasted object on this page, not shown here)

NSG mice = assay: Toxicity after repeated doses in NSG mice (CBC, observation)
Method: Figure 6 Toxicity of 164B8 after repeated doses in NSG mice Blood from mice treated as described in Figure 5 was collected and evaluated at the end of the experiment. Peripheral blood from mice was collected and analyzed by standard complete blood count (CBC). (A) Body weight, (B) white blood cell (WBC) counts (×10^9 cells/L), (C) hemoglobin (HGB) concentration (g/dL), and (D) platelet counts (×10^9 cells/L, log scale) in peripheral blood were determined. Data are presented as individual values with mean ± SD. Dotted horizontal lines indicate physiological reference ranges. Statistical comparisons were performed using one-way AVOVA; p values are shown in each panel.
as §1

[2] = 30 mg/kg i.p. for 2 weeks, blood at end of experiment

SMILES: CNC(=O)[C@H](Cc1c[nH]c2ccccc12)NC(=O)[C@@H]1CCCCN1C(=O)[C@H](Cc1c[nH]c2cc(Cl)ccc12)NC(=O)CCl [164B8] (ClAc-[Trp(6-Cl)]-[Pip]-Trp-NHMe)
- 164B8 conc. (ng/mg) Predicted means (LS means) Adjacent Peritoneum ([1]; 30mg/kg): 0.1133 ng/mg
- 164B8 conc. (ng/mg) Predicted means (LS means) Liver ([1]; 30mg/kg): 0.1017 ng/mg
- 164B8 conc. (ng/mg) Predicted means (LS means) Tumor ([1]; 30mg/kg): 0.6183 ng/mg
- 164B8 conc. (ng/mg) Predicted means (LS means) Adjacent Peritoneum ([1]; 60mg/kg): 3.648 ng/mg
- 164B8 conc. (ng/mg) Predicted means (LS means) Liver ([1]; 60mg/kg): 0.7550 ng/mg
- 164B8 conc. (ng/mg) Predicted means (LS means) Tumor ([1]; 60mg/kg): 8.005 ng/mg
- 164B8 conc. (ng/mg) Predicted means (LS means) Column means ([1]; 60mg/kg, mean over liver, adjacent peritoneum and tumor (Figure 7B)): 4.136 ng/mg
- Acute single-dose toxicity (CD-1 mice; 100 mg/kg single dose intraperitoneally (highest soluble dose), monitored over 2 weeks, 3 mice): did not produce any observable signs of acute toxicity
- Maximum tolerated dose (CD-1 mice; single intraperitoneal dose up to 100 mg/kg): not reached
- Tolerability of repeated dosing (NSG mice; 30 mg/kg i.p. for 2 weeks): generally well tolerated
- Anemia (hemoglobin, CBC) (NSG mice; [2]): mild anemia
- Thrombocytopenia (platelet counts, CBC) (NSG mice; [2]): moderate thrombocytopenia
- Mice euthanized because of ascites development (NSG mice; 60 mg/kg i.p. for 2 weeks, final time point, no obvious carcinomatosis): two of six mice
